Experimental data published in paper PMC10165928 (Journal of Enzyme Inhibition and Medicinal Chemistry, 2023).
Entries after “also recorded” stand apart in the source; their conditions may differ. Blank lines part the entries; values can stand above or below the compound they belong to.

Experiments:
HDAC1 = HDAC1 (Homo sapiens, UniProt Q13547); assay: In vitro HDAC1 inhibition assay; format: biochemical; details: for IC50 HDAC1: mean ± SEM of three independent assays, NA: IC50 not apparent even with the compound tested >10 μM; for SI (selectivity index): ratio of IC50 of HDAC6 divided by that of HDAC1
Sequence of HDAC1 (Q13547 whole entry): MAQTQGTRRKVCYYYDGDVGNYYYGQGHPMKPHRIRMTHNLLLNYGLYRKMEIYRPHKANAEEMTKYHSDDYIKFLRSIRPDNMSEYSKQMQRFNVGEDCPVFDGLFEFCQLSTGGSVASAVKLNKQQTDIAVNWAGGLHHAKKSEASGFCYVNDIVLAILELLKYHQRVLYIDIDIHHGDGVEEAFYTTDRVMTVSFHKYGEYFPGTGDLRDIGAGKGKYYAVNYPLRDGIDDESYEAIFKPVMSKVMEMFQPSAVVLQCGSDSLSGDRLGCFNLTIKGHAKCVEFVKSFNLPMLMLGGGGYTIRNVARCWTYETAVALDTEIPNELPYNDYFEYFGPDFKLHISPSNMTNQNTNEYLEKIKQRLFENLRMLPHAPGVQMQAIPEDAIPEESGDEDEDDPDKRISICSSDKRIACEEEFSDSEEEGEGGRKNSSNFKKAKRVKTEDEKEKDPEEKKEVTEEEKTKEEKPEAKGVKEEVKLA

HDAC6 = target: T1, HDAC6 (Homo sapiens, UniProt Q9UBN7); assay: In vitro HDAC6 inhibition assay; format: biochemical; details: mean ± SEM of three independent assays; NA: IC50 not apparent even with the compound tested >10 μM
T1 sequence (Q9UBN7 1-1215): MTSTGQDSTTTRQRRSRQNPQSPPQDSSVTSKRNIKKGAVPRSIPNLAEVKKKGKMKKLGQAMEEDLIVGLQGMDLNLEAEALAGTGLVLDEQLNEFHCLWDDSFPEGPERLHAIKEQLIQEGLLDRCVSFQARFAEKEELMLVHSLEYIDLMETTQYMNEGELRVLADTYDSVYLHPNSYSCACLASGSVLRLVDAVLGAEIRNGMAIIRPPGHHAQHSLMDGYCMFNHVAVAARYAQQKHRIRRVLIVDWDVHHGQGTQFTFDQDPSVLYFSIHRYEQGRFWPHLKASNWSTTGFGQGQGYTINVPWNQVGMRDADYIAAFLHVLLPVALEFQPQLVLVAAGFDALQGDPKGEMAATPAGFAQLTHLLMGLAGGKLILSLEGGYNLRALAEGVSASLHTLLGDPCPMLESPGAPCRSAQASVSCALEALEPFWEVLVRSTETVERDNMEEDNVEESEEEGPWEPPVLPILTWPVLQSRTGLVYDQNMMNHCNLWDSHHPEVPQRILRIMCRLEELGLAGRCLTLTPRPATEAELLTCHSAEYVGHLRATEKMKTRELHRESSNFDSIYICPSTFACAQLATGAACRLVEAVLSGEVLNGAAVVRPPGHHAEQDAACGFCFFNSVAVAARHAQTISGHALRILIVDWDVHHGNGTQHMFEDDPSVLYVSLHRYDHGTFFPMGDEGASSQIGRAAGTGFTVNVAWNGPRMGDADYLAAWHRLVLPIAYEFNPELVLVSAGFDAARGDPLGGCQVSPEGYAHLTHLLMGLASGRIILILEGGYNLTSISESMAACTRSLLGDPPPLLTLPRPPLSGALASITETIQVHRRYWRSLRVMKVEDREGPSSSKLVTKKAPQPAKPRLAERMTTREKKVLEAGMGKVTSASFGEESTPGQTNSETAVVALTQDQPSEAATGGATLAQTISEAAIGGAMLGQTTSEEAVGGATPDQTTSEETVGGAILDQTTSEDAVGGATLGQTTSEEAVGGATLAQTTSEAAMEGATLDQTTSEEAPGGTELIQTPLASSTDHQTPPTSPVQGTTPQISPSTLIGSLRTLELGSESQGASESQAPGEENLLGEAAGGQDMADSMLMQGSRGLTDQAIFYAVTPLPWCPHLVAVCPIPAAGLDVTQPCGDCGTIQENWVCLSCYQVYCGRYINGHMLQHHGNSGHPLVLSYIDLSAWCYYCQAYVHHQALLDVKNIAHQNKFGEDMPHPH

HDAC3 = HDAC3 (Homo sapiens, UniProt O15379); assay: In vitro HDAC3 inhibition assay; format: biochemical
Sequence of HDAC3 (O15379 whole entry): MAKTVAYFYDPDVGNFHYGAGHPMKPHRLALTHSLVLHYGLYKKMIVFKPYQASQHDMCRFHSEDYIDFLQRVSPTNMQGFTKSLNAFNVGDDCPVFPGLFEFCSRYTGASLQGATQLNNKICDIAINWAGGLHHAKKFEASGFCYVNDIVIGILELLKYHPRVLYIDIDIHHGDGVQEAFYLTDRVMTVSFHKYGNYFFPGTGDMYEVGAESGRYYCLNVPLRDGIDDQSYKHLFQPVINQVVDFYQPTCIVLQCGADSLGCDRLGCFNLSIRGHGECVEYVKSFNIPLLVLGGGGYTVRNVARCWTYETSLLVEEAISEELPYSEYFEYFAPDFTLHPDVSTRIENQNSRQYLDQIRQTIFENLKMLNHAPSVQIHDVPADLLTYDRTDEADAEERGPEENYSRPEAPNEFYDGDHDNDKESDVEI
Sequence of HDAC3 (Q9Y618 395-489 partner limits assumed): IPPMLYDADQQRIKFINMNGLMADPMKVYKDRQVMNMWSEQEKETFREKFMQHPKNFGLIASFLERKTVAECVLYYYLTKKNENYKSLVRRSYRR

HDAC8 = target: T2, HDAC8 (Homo sapiens, UniProt Q9BY41); assay: In vitro HDAC8 inhibition assay; format: biochemical; details: for IC50 HDAC8: mean ± SEM of three independent assays
T2 sequence (Q9BY41 1-377): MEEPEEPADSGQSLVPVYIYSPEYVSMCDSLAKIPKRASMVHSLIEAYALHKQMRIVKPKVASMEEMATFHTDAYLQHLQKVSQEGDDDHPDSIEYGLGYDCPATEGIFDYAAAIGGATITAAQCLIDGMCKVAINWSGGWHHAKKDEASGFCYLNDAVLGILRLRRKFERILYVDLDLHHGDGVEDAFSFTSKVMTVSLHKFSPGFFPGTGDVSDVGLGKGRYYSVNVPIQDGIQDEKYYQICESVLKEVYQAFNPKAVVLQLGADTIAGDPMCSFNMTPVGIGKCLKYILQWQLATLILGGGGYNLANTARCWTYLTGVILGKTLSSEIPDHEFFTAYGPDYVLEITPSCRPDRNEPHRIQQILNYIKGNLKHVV

HDAC10 = target: T3, HDAC10 (Homo sapiens, UniProt Q969S8); assay: In vitro HDAC10 inhibition assay; format: biochemical
T3 sequence (Q969S8 1-669): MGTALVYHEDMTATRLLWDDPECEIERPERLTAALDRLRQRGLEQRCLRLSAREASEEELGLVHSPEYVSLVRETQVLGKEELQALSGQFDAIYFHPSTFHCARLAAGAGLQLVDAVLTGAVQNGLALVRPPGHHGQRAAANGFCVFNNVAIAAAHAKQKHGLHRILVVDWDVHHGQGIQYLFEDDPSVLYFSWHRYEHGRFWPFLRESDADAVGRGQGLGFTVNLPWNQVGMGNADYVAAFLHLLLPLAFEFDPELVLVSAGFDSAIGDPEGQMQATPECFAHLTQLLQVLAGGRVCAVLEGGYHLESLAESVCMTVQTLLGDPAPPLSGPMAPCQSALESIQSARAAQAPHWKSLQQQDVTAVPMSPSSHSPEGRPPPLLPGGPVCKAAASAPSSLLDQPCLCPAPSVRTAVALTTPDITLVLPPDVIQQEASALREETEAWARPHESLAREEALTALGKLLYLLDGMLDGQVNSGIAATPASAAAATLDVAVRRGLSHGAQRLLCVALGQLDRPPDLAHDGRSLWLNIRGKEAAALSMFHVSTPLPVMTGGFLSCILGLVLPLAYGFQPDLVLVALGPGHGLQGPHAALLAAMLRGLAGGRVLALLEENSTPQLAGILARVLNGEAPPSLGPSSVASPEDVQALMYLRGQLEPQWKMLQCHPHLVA

[1] = system: colon cancer HCT-116 cells; assay: MTT cell growth inhibition assay, HCT-116; format: cell-based, human; details: for IC50: Homo sapiens, HCT-116, 72 h, read-out: IC50 HCT-116 cells
[2] = system: promyelocytic leukaemia HL-60 cells; assay: MTT cell growth inhibition assay, HL-60; format: cell-based; details: Homo sapiens, HL-60, 72 h, read-out: IC50 HL-60 cells
[3] = system: normal human liver L-O2 cells; assay: In vitro toxicity test; format: cell-based; details: for IC50: Homo sapiens, L02, 72 h, read-out: IC50 L-O2 cells; for SI (selectivity index): ratio of IC50 of L-O2 cells divided by that of HL-60 cells
HL-60 cells [4] = assay: Western blot analysis in HL-60 cells; format: cell-based, human; details: 48 h; for histone H3 acetylation (Ac-H3) level: different concentrations; for expression of Rb / expression of p-Rb / expression of γ-H2AX: increasing concentration
HL-60 cells [5] = assay: Cell cycle analysis by flow cytometry; format: cell-based, human; details: HL-60, 48 h
HL-60 cells [6] = assay: Cell apoptosis detection; format: cell-based, human; details: HL-60, 48 h

IC50 HDAC1 (HDAC1): completely lost
SMILES: Nc1cc(F)ccc1NC(=O)c1ccc(Cl)c2c(=O)c3cccc([N+](=O)[O-])c3[nH]c12 [Compound 8a, N-(2-amino-4-fluorophenyl)-1-chloro-5-nitro-9-oxo-9,10-dihydroacridine-4-carboxamide]

IC50 (HDAC1): 227 ± 9 nM | SI (selectivity index) (HDAC1): >44.1 | IC50 (HDAC3): 418 ± 40 nM | IC50 (HDAC8): > 5000 nM | IC50 (HDAC10): 387 ± 64 nM | IC50 [1]: 3170 ± 260 nM | IC50 [2]: 560 ± 30 nM
SMILES: COc1cccc2c(=O)c3c(Cl)ccc(C(=O)NCCCCCC(=O)Nc4ccccc4N)c3[nH]c12 [Compound 11b, N-(6-((2-aminophenyl)amino)-6-oxohexyl)-1-chloro-5-methoxy-9-oxo-9,10-dihydroacridine-4-carboxamide]
IC50 HDAC6 (HDAC6): no inhibitory effect; also recorded: no inhibitory activity | IC50 HDAC8 (HDAC8): no inhibitory effect; also recorded: no inhibitory activity | IC50 [3]: 5000 ± 330 nM | SI (selectivity index) [3]: 8.9 | histone H3 acetylation (Ac-H3) level (HL-60 cells [4]): significantly induced histone H3 acetylation | expression of Rb (HL-60 cells [4]): significantly down-regulated | expression of p-Rb (HL-60 cells [4]): significantly down-regulated | expression of γ-H2AX (HL-60 cells [4]): up-regulated | proportion of cells in S phase (HL-60 cells [5]; 0.1 μM): 49.1% | proportion of cells in S phase (HL-60 cells [5]; 0.5 μM): 50.4% | proportion of cells in S phase (HL-60 cells [5]; 2.5 μM): 59.2% | proportion of apoptotic cells (HL-60 cells [6]; 2.5 μM): 85.8%

IC50 (HDAC1): 4090 ± 273 nM | SI (selectivity index) (HDAC1): >2.4 | IC50 HCT-116 cells ([1]; MTT, 72 h, mean ± SEM of three assays, NA: IC50 not apparent even with the compound tested >50 μM): no anti-proliferation activity | IC50 [2]: 13200 ± 2430 nM
SMILES: COc1cccc2c(=O)c3c(Cl)ccc(C(=O)NCCCC(=O)Nc4ccccc4N)c3[nH]c12 [Compound 11a, N-(4-((2-aminophenyl)amino)-4-oxobutyl)-1-chloro-5-methoxy-9-oxo-9,10-dihydroacridine-4-carboxamide]

IC50 (HDAC10): 259 ± 23 nM | IC50 [1]: 3860 ± 1080 nM | IC50 [2]: 860 ± 70 nM
SMILES: Nc1cc(F)ccc1NC(=O)c1ccc(CNC(=O)/C=C/c2cccnc2)cc1 [Chidamide, chidamide, reference compound]
IC50 [3]: 8870 ± 930 nM

IC50 (HDAC1): 87 ± 3 nM | SI (selectivity index) (HDAC1): >114.9 | IC50 (HDAC3): 225 ± 9 nM | IC50 (HDAC8): > 5000 nM | IC50 (HDAC10): 177 ± 8 nM | IC50 [1]: 4210 ± 570 nM | IC50 [2]: 1240 ± 80 nM
SMILES: COc1cccc2c(=O)c3c(Cl)ccc(C(=O)NCCCCCCC(=O)Nc4ccccc4N)c3[nH]c12 [Compound 11c, N-(7-((2-aminophenyl)amino)-7-oxoheptyl)-1-chloro-5-methoxy-9-oxo-9,10-dihydroacridine-4-carboxamide]
IC50 HDAC6 (HDAC6): no inhibitory effect; also recorded: no inhibitory activity | IC50 HDAC8 (HDAC8): no inhibitory effect; also recorded: no inhibitory activity | IC50 [3]: 7190 ± 1520 nM | SI (selectivity index) [3]: 5.8 | histone H3 acetylation (Ac-H3) level (HL-60 cells [4]): significantly induced histone H3 acetylation | expression of Rb (HL-60 cells [4]): significantly down-regulated | expression of p-Rb (HL-60 cells [4]): significantly down-regulated | expression of γ-H2AX (HL-60 cells [4]): up-regulated | proportion of cells in S phase (HL-60 cells [5]; 0.2 μM): 48.4% | proportion of cells in S phase (HL-60 cells [5]; 1 μM): 52.7% | proportion of cells in S phase (HL-60 cells [5]; 5 μM): 58.4% | proportion of apoptotic cells (HL-60 cells [6]; 5 μM): 70.3%

IC50 HDAC1 (HDAC1): completely lost
SMILES: Cc1c(C(=O)Nc2ccc(Br)cc2N)cc(Br)c2c(=O)c3ccccc3[nH]c12 [Compound 16b, N-(2-amino-4-bromophenyl)-1-bromo-4-methyl-9-oxo-9,10-dihydroacridine-3-carboxamide]

IC50 (HDAC1): 247 ± 38 nM | SI (selectivity index) (HDAC1): >40.5 | IC50 [1]: 7510 ± 740 nM | IC50 [2]: 10200 ± 3200 nM
SMILES: COc1cccc2c(=O)c3c(Cl)ccc(C(=O)NCCCCCCC(=O)Nc4ccc(F)cc4N)c3[nH]c12 [Compound 11d, N-(7-((2-amino-4-fluorophenyl)amino)-7-oxoheptyl)-1-chloro-5-methoxy-9-oxo-9,10-dihydroacridine-4-carboxamide]

IC50 HDAC1 (HDAC1): completely lost
SMILES: Cc1c(C(=O)Nc2ccccc2N)cc(Br)c2c(=O)c3ccccc3[nH]c12 [Compound 16a, N-(2-aminophenyl)-1-bromo-4-methyl-9-oxo-9,10-dihydroacridine-3-carboxamide]
